PubChem BioAssay (NCI)
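48-hour exposure; five concentrations; linearly interpolated endpoints. TGI is the concentration that stops growth completely.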

What was measured:
Experiment in all cases: growth of human tumour cells (NCI), 48 h
[1] = tested on: CCRF-CEM leukemia
[2] = tested on: MDA-N
[3] = tested on: HCC-2998 colon
[4] = tested on: NCI-H23 lung
[5] = tested on: BT-549 breast
[6] = tested on: HOP-62 NSCLC
[7] = tested on: UO-31 renal
[8] = tested on: LOX IMVI melanoma
[9] = tested on: SF-295 CNS
[10] = tested on: SK-MEL-2 melanoma
[11] = tested on: HOP-92 NSCLC
[12] = tested on: CAKI-1 renal
[13] = tested on: HT29 colon
[14] = tested on: HS 578T breast
[15] = tested on: TK-10 renal
[16] = tested on: OVCAR-4 ovarian
[17] = tested on: RXF 393 renal
[18] = tested on: SNB-75 CNS
[19] = tested on: MDA-MB-231 breast
[20] = tested on: KM12 colon
[21] = tested on: SF-268 CNS
[22] = tested on: HCT-15 colon
[23] = tested on: T-47D breast
[24] = tested on: MCF7 breast
[25] = tested on: PC-3 prostate
[26] = tested on: COLO 205 colon
[27] = tested on: UACC-257 melanoma
[28] = tested on: HL-60(TB) leukemia
[29] = tested on: SR leukemia
[30] = tested on: SW-620 colon
[31] = tested on: A498 renal
[32] = tested on: RPMI-8226 leukemia
[33] = tested on: A549 NSCLC
[34] = tested on: ACHN renal
[35] = tested on: HCT-116 colon
[36] = tested on: DU-145 prostate
[37] = tested on: M14 melanoma
[38] = tested on: MDA-MB-435
[39] = tested on: MOLT-4 leukemia
[40] = tested on: 786-0 renal
[41] = tested on: SF-539 CNS
[42] = tested on: IGROV1 ovarian
[43] = tested on: U251 CNS
[44] = tested on: EKVX NSCLC
[45] = tested on: UACC-62 melanoma
[46] = tested on: OVCAR-5 ovarian
[47] = tested on: K-562 leukemia
[48] = tested on: SK-MEL-28 melanoma
[49] = tested on: NCI/ADR-RES ovarian
[50] = tested on: OVCAR-3 ovarian
[51] = tested on: SK-MEL-5 melanoma
[52] = tested on: NCI-H460 lung
[53] = tested on: SN12C renal
[54] = tested on: SK-OV-3 ovarian

Q: `c1cc(-c2cscc2-c2ccsc2)cs1` was tested. Which TGI [1] did it give?
A: > 100 µM

Q: What about the TGI [2] of the same molecule?
A: > 100 µM

Q: What about the TGI [3] of the same molecule?
A: 91.8 µM

Q: What about the TGI [4] of the same molecule?
A: > 100 µM

Q: And the TGI [5]?
A: > 100 µM

Q: What about the TGI [6] of the same molecule?
A: > 100 µM

Q: And the TGI [7]?
A: > 100 µM

Q: What about the TGI [8] of the same molecule?
A: > 100 µM

Q: And the TGI [9]?
A: > 100 µM

Q: What about the TGI [10] of the same molecule?
A: 28.4 µM

Q: And the TGI [11]?
A: > 100 µM

Q: What about the TGI [12] of the same molecule?
A: > 100 µM

Q: What about the TGI [13] of the same molecule?
A: > 100 µM

Q: And the TGI [14]?
A: 64.2 µM

Q: And the TGI [15]?
A: > 100 µM

Q: And the TGI [16]?
A: > 100 µM

Q: And the TGI [17]?
A: > 100 µM

Q: And the TGI [18]?
A: > 100 µM

Q: What about the TGI [19] of the same molecule?
A: > 100 µM

Q: And the TGI [20]?
A: 38 µM

Q: What about the TGI [21] of the same molecule?
A: > 100 µM

Q: What about the TGI [22] of the same molecule?
A: > 100 µM

Q: And the TGI [23]?
A: > 100 µM

Q: And the TGI [24]?
A: > 100 µM

Q: What about the TGI [25] of the same molecule?
A: > 100 µM

Q: What about the TGI [26] of the same molecule?
A: > 100 µM

Q: What about the TGI [27] of the same molecule?
A: > 100 µM

Q: What about the TGI [28] of the same molecule?
A: > 100 µM

Q: And the TGI [29]?
A: > 100 µM

Q: What about the TGI [30] of the same molecule?
A: > 100 µM

Q: What about the TGI [31] of the same molecule?
A: > 100 µM

Q: And the TGI [32]?
A: > 100 µM

Q: And the TGI [33]?
A: > 100 µM

Q: What about the TGI [34] of the same molecule?
A: > 100 µM

Q: What about the TGI [35] of the same molecule?
A: > 100 µM

Q: What about the TGI [36] of the same molecule?
A: > 100 µM

Q: And the TGI [37]?
A: > 100 µM

Q: And the TGI [38]?
A: > 100 µM

Q: What about the TGI [39] of the same molecule?
A: > 100 µM

Q: And the TGI [40]?
A: > 100 µM

Q: What about the TGI [41] of the same molecule?
A: 59.5 µM

Q: What about the TGI [42] of the same molecule?
A: > 100 µM

Q: What about the TGI [43] of the same molecule?
A: > 100 µM

Q: What about the TGI [44] of the same molecule?
A: > 100 µM

Q: And the TGI [45]?
A: > 100 µM

Q: What about the TGI [46] of the same molecule?
A: > 100 µM

Q: And the TGI [47]?
A: > 100 µM

Q: What about the TGI [48] of the same molecule?
A: > 100 µM

Q: And the TGI [49]?
A: > 100 µM

Q: And the TGI [50]?
A: 89.8 µM

Q: What about the TGI [51] of the same molecule?
A: > 100 µM

Q: What about the TGI [52] of the same molecule?
A: > 100 µM

Q: And the TGI [53]?
A: > 100 µM

Q: What about the TGI [54] of the same molecule?
A: > 100 µM
